Active and inactive are the calls of the source.

Here are results for 6 compounds from ChEMBL document CHEMBL3991601, “The target landscape of clinical kinase drugs” (Science, 2017).

The target of assay [1] is Serine/threonine-protein kinase 16 (Homo sapiens, UniProt O75716).
The target in assay [2] is Focal adhesion kinase 1 (Homo sapiens, UniProt Q05397).
Assay [3] has as its target Mitogen-activated protein kinase 11 (Homo sapiens, UniProt Q15759).
In assay [4] the target is T1, Electron transfer flavoprotein subunit beta (Homo sapiens, UniProt P38117).
T1 sequence (P38117 whole entry): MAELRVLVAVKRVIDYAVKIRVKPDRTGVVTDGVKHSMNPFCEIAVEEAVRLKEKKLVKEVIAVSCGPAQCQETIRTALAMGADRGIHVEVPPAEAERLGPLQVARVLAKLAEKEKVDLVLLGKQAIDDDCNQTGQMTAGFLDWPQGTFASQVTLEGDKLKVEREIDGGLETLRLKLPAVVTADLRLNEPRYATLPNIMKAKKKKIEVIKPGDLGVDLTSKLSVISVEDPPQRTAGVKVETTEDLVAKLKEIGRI

Assay [5] addresses Serine/threonine-protein kinase SIK3 (Homo sapiens, UniProt Q9Y2K2).
In assay [6] the target is cAMP-dependent protein kinase type II-alpha regulatory subunit (Homo sapiens, UniProt P13861).
cAMP-dependent protein kinase type II-alpha regulatory subunit, sequence (P13861 whole entry): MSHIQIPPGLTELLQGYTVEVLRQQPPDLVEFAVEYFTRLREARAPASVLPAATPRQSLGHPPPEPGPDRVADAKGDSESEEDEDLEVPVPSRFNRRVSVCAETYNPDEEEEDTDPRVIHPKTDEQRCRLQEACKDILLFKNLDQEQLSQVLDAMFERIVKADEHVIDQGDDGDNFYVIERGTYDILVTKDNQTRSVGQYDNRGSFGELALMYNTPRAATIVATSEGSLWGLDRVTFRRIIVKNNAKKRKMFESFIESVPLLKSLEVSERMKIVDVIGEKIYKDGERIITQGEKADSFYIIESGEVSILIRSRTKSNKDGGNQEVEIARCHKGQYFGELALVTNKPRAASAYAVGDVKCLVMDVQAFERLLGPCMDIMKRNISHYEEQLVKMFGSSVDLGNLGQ
For assay [7], the target named is T2, cGMP-dependent protein kinase 1 (Homo sapiens, UniProt Q13976).
T2 sequence (Q13976 whole entry): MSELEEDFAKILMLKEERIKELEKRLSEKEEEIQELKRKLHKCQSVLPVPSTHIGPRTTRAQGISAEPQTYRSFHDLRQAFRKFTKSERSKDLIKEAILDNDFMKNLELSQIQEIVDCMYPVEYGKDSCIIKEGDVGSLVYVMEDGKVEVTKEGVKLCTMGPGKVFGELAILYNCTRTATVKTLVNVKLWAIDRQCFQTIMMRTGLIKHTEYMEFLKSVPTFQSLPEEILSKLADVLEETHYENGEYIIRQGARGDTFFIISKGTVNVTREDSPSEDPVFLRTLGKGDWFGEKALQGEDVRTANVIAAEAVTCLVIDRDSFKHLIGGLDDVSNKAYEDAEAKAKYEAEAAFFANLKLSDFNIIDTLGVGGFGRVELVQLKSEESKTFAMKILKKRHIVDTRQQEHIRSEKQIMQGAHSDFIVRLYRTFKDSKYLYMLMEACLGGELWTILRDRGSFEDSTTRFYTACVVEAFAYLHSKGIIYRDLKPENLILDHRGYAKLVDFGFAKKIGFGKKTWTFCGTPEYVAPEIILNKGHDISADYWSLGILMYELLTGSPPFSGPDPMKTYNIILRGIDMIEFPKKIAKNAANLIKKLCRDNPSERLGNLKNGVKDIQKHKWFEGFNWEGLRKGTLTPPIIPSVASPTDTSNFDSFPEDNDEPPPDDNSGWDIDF

Assay [8] deals with T3, Glycine--tRNA ligase (Homo sapiens, UniProt P41250).
T3 sequence (P41250 whole entry): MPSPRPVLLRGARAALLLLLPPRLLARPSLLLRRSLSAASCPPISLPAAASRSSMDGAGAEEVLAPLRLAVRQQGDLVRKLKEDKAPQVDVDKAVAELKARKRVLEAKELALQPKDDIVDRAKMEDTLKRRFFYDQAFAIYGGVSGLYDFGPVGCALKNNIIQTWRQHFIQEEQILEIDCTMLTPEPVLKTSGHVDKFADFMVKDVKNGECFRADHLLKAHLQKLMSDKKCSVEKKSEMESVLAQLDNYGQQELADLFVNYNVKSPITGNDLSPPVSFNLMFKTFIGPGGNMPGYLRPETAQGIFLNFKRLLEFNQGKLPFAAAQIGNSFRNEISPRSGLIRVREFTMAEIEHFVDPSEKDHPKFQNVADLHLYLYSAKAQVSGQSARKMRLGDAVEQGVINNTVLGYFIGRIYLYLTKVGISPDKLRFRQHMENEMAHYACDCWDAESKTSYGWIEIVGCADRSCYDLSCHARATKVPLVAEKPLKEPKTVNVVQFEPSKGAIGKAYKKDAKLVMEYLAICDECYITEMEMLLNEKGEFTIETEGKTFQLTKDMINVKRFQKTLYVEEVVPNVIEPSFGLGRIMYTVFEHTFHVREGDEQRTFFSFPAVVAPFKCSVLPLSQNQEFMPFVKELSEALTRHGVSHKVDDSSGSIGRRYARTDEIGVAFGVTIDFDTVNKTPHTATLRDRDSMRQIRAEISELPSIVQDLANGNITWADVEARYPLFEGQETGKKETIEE
Note: in the data inactive means no Kd found up to 30 µM.

Serine/threonine-protein kinase 16, sequence (O75716 whole entry): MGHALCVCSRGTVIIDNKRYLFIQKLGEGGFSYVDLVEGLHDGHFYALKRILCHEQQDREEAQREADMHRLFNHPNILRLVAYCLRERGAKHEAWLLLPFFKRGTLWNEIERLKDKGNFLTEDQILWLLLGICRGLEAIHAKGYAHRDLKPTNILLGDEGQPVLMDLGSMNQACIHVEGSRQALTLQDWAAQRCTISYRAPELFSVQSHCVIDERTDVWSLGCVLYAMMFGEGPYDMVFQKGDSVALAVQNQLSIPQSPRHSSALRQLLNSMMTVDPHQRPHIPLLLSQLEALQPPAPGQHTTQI
Focal adhesion kinase 1, sequence (Q05397 whole entry): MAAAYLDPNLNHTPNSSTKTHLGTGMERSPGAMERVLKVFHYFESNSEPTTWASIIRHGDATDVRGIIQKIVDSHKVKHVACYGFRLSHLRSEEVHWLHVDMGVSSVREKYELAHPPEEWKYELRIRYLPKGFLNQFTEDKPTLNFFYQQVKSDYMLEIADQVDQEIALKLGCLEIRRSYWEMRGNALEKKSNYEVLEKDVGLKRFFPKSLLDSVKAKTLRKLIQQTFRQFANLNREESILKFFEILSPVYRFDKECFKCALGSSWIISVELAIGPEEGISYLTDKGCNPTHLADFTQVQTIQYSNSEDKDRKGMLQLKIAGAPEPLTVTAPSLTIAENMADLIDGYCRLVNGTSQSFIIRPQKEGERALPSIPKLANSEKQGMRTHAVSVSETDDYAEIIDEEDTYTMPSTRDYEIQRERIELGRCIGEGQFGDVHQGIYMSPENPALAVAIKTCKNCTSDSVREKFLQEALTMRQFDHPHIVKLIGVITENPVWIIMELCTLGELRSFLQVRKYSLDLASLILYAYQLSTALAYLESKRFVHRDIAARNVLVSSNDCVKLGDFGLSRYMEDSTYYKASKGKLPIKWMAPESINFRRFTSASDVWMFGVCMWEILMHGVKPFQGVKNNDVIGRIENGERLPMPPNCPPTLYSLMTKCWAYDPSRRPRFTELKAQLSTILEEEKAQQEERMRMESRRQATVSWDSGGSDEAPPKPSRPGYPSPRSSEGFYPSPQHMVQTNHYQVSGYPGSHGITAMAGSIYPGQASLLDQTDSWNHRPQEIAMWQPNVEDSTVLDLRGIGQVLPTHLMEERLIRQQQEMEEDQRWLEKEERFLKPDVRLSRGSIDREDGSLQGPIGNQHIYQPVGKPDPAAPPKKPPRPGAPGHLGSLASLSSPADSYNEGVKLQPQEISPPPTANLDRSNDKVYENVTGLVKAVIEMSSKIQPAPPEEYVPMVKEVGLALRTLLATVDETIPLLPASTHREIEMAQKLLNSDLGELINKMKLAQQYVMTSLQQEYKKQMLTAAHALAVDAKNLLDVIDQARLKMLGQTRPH
Mitogen-activated protein kinase 11, sequence (Q15759 whole entry): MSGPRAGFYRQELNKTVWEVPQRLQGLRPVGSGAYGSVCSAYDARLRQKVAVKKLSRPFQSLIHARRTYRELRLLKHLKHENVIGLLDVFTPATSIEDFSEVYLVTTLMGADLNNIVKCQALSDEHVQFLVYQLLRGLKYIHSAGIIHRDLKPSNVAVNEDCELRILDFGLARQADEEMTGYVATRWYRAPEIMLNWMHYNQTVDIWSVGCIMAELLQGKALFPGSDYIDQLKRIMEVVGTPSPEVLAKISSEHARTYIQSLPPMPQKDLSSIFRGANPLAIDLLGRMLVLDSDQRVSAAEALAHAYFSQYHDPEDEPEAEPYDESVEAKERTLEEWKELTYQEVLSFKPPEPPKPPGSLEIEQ
Serine/threonine-protein kinase SIK3, sequence (Q9Y2K2 whole entry): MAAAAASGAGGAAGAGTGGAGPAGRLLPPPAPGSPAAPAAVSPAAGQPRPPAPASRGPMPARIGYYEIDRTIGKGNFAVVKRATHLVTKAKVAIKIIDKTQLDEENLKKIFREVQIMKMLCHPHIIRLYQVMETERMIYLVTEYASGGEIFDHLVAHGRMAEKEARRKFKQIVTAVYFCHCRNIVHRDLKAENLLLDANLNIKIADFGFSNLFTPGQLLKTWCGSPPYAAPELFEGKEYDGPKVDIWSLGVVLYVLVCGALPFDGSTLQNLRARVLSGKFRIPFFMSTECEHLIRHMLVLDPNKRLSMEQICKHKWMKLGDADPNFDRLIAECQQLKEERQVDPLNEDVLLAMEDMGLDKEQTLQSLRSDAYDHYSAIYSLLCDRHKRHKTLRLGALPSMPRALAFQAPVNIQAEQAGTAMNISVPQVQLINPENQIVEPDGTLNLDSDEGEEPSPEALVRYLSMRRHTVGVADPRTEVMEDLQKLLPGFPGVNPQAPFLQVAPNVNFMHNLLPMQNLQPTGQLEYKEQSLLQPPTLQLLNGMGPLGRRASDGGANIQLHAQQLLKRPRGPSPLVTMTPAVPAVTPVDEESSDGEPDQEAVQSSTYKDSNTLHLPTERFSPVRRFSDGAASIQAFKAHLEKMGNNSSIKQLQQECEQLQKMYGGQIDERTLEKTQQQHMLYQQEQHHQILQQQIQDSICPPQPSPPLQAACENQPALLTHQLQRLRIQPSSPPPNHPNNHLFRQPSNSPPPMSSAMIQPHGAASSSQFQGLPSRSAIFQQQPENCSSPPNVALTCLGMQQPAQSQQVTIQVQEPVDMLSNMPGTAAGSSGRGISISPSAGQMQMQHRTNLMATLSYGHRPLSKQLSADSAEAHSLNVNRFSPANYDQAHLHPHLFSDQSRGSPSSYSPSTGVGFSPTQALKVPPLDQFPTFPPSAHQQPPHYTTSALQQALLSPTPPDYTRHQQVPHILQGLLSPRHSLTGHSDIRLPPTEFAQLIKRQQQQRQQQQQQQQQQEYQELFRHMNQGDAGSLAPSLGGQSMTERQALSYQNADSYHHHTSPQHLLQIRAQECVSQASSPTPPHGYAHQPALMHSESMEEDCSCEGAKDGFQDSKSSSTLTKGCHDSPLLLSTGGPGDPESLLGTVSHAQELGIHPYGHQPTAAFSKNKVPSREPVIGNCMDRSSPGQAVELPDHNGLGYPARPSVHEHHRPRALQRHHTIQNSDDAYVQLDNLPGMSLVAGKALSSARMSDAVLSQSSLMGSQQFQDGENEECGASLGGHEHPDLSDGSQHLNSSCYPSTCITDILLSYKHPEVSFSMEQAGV

The Kd is a measure of binding affinity in units of concentration. In the case of `CNC(=O)c1cc(Oc2ccc(NC(=O)Nc3ccc(Cl)c(C(F)(F)F)c3)c(F)c2)ccn1` [REGORAFENIB], the Kd is > 30 µM (inactive) in assay [1]; > 30 µM (inactive) in assay [2]; 1.91 µM (active) in assay [3]; > 30 µM (inactive) in assay [4]; > 30 µM (inactive) in assay [5]; > 30 µM (inactive) in assay [6]. The Kd in assay [7] and in assay [8] was > 30 µM (inactive) in each case.
Consider `COC(=O)N[C@@H](C)CNc1nccc(-c2cn(C(C)C)nc2-c2cc(Cl)cc(NS(C)(=O)=O)c2F)n1` [ENCORAFENIB], for which the Kd in assay [1], in assay [2], in assay [3], in assay [4], in assay [5] and in assay [6] was > 30 µM (inactive) each time. Besides, the Kd in assay [7] and in assay [8] was > 30 µM (inactive) each time.
Consider `Cc1cc(-c2cc(O)ccc2Cl)cc2nnc(Nc3ccc(OCCN4CCCC4)cc3)nc12`, for which the Kd in assay [1] is > 30 µM (inactive); in assay [2], > 30 µM (inactive); in assay [3], > 30 µM (inactive); in assay [4], > 30 µM (inactive); in assay [5], 0.003 µM (active); in assay [6] it was > 30 µM (inactive). The Kd in assay [7] and in assay [8] was > 30 µM (inactive) each time.
As to `CC[C@@H]1C(=O)N(C)c2cnc(Nc3ccc(C(=O)N[C@H]4CC[C@H](N5CCN(CC6CC6)CC5)CC4)cc3OC)nc2N1C(C)C` [VOLASERTIB], the Kd in assay [1] is > 30 µM (inactive); in assay [2], 0.601 µM (active); in assay [3], > 30 µM (inactive); in assay [4], > 30 µM (inactive); in assay [5] it was > 30 µM (inactive); in assay [6] it was > 30 µM (inactive). In addition, the Kd in assay [7] and in assay [8] was > 30 µM (inactive) throughout.
Take `O=c1sn(-c2cccc3ccccc23)c(=O)n1Cc1ccccc1` [TIDEGLUSIB]: the Kd in assay [1], in assay [2], in assay [3], in assay [4], in assay [5] and in assay [6] was > 30 µM (inactive) throughout. Moreover, the Kd in assay [7] and in assay [8] was > 30 µM (inactive) in each case.
`CO[C@H]1C[C@@H]2CC[C@@H](C)[C@@](O)(O2)C(=O)C(=O)N2CCCC[C@H]2C(=O)O[C@H]([C@H](C)C[C@@H]2CC[C@@H](OCCO)[C@H](OC)C2)CC(=O)[C@H](C)/C=C(\C)[C@@H](O)[C@@H](OC)C(=O)[C@H](C)C[C@H](C)/C=C/C=C/C=C/1C` [EVEROLIMUS]: the Kd in assay [1], in assay [2], in assay [3], in assay [4], in assay [5] and in assay [6] was > 30 µM (inactive) throughout. The Kd in assay [7] and in assay [8] was > 30 µM (inactive) each time.
